The source of these data is US20070259874A1, “Phosphodiesterase Inhibitors” (priority 2003, published 2007).

As for `CCOc1ccccc1-c1nc(C2(C)CC(c3ccc(OC)c(OC4CCCC4)c3)=NO2)no1` (centres unmarked) [Compound No. 59, 3-[3-(3-Cyclopentyloxy-4-methoxyphenyl)-5-methyl-4,5-dihydro-isoxazol-5-yl]-5-(2-ethoxy-phenyl)-[1,2,4]oxadiazole], the melting point is 138.5 to 139 °C.

In turn, `COc1ccc(C2=NOC(C)(c3noc(C4CC4)n3)C2)cc1OC1CCCC1` (centres unmarked) [Compound No. 60, 3-[3-(3-Cyclopentyloxy-4-methoxyphenyl)-5-methyl-4,5-dihydro-isoxazol-5-yl]-5-cyclopropyl-[1,2,4]oxadiazole] had a melting point of 105 to 106 °C.

For the molecule `COc1cccc(-c2nc(C3(C)CC(c4ccc(OC)c(OC5CCCC5)c4)=NO3)no2)c1` (centres unmarked) [Compound No. 74, 3-[3-(3-Cyclopentyloxy-4-methoxyphenyl)-5-methyl-4,5-dihydro-isoxazol-5-yl]-5-(3-methoxy-phenyl)-[1,2,4]oxadiazole], the melting point lay in the range of 121 to 122 °C.

`COc1ccc(C2=NOC(C)(c3noc(-c4ccccc4Cl)n3)C2)cc1OC1CCCC1` (centres unmarked) [Compound No. 76, 5-(2-Chlorophenyl)-3-[3-(3-cyclopentyloxy-4-methoxyphenyl)-5-methyl-4,5-dihydro-isoxazol-5-yl]-[1,2,4]oxadiazole] had a melting point of 122 °C.

Take `COc1ccc(C2=NOC(C)(c3noc(-c4ccc(Cl)c(Cl)c4)n3)C2)cc1OC1CCCC1` (centres unmarked) [Compound No. 79, 3-[3-(3-Cyclopentyloxy-4-methoxyphenyl)-5-methyl-4,5-dihydro-isoxazol-5-yl]-5-(3,4-dichloro-phenyl)-[1,2,4]oxadiazole]: the melting point is 113.5 to 114.9 °C.
